Measured values published in patent US12528818B2, “Compositions and methods for inhibition of RAS” (Leidos Biomedical Research, Inc., priority 2021, dated 2026).

These molecules were tested on pERK in NCI-H358 cells (assay: Cell-based pERK HTRF assay (pERK inhibition in H358 cells)). Conditions: Homo sapiens, NCI-H358, 0.5 h, pERK inhibition IC50, NCI-H358 cells, 30 min incubation; read-out: PERK in H358 cell.

IC50 | SMILES
< 100 nM | C=CC(=O)N1[C@@H](C)CN(c2nc(OC[C@@]34CCCN3C[C@H](F)C4)nc3c(F)c(-c4ccc(F)c5sc(N)c(C#N)c45)c(C(F)(F)F)cc23)C[C@@H]1C [Compound 321]
100 to 1000 nM | C=CC(=O)N1CCC(N(C)c2nc(OC[C@@]34CCCN3C[C@H](F)C4)nc3c(F)c(-c4ccc(F)c5sc(N)nc45)ccc23)[C@H]1C (stereo partly drawn) [Compound 413]
< 100 nM | C=CC(=O)N1CCC(N(C)c2nc(OC[C@@H]3C[C@@H](OC)CN3C)nc3c(F)c(-c4ccc(F)c5sc(N)c(C#N)c45)ccc23)[C@H]1C (stereo partly drawn) [Compound 430]
100 to 1000 nM | C=CC(=O)N1CC[C@H](N(C)c2nc(OC[C@@]34CCCN3C[C@H](F)C4)nc3c(F)c(-c4ccc(F)c5sc(N)c(C#N)c45)c(F)cc23)C1 [Compound 336]
< 100 nM | C=CC(=O)N1CC[C@@H](N(C)c2nc(N3CC(N4CC5(CC5)C4)C3)nc3c(F)c(-c4ccc(F)c5sc(N)c(C#N)c45)c(C(F)(F)F)cc23)C1 [Compound 340]
< 100 nM | C=CC(=O)N1CCC(N(C)c2nc(OC[C@@H]3CCCN3C)nc3c(F)c(-c4ccc(F)c5sc(N)c(C#N)c45)c(C(F)(F)F)cc23)C1COC (stereo partly drawn) [Compound 426, 4-(4-((1-acryloyl-2-(methoxymethyl)pyrrolidin-3-yl)(methyl)amino)-8-fluoro-2-(((S)-1-methylpyrrolidin-2-yl)methoxy)-6-(trifluoromethyl)quinazolin-7-yl)-2-amino-7-fluorobenzo[b]thiophene-3-carbonitrile]
> 1000 nM | CC#CC(=O)N1CCN(c2nc(OC[C@@H]3CC(F)(F)CN3C)nc3c(F)c(-c4ccc(F)c5sc(N)nc45)c(C(F)(F)F)cc23)CC1 [Compound 132]
< 100 nM | C=CC(=O)N1CC[C@@H](N(C)c2nc(OC[C@@]34CCCN3C[C@H](F)C4)nc3c(F)c(-c4ccc(F)c5sc(N)c(C#N)c45)c(F)cc23)C1 [Compound 343]
< 100 nM | C=CC(=O)N1C[C@@H](F)[C@@H](N(CC)c2nc(OC[C@@]34CCCN3C[C@H](F)C4)nc3cc(-c4ccc(F)c5sc(N)c(C#N)c45)c(C(F)(F)F)cc23)C1 [Compound 375]
< 100 nM | C=CC(=O)N1C[C@H](C)N(c2nc(OC[C@@]34CCCN3C[C@H](F)C4)nc3c(F)c(-c4ccc(F)c5sc(N)c(C#N)c45)c(C(F)(F)F)cc23)C[C@@H]1C [Compound 349]
< 100 nM | C=CC(=O)N1CC[C@@H](N(C)c2nc(OC[C@@H]3CC4(CC4)CN3C)nc3c(F)c(-c4ccc(F)c5sc(N)nc45)c(C(F)(F)F)cc23)C1 (atropisomer, axis not shown) [Compound 255]
100 to 1000 nM | C=CC(=O)N1CC[C@H](N(C)c2nc(OC[C@@]34CCCN3C[C@H](F)C4)nc3c(F)c(-c4ccc(F)c5sc(N)nc45)c(C(F)(F)F)cc23)C1 [Compound 188]
< 100 nM | C=CC(=O)N1C[C@H](C)N(c2ncnc3c(F)c(-c4ccc(F)c5sc(N)c(C#N)c45)c(C(F)(F)F)cc23)C[C@H]1C [Compound 382]
< 100 nM | C=CC(=O)N1C[C@H](C)N(c2nc(OC[C@@]34CCCN3C[C@H](F)C4)nc3c(Cl)c(-c4ccc(F)c5sc(N)c(C#N)c45)c(C#N)cc23)C[C@H]1C [Compound 422]
< 100 nM | C=CC(=O)N1C[C@H](C)N(c2nc(OCC3(CN4CC[C@@H](F)C4)CC3)nc3c(F)c(-c4ccc(F)c5sc(N)nc45)c(C(F)(F)F)cc23)C[C@H]1C [Compound 286]
100 to 1000 nM | C=CC(=O)N1CCC(N(C)c2nc(OC[C@@]34CCCN3C[C@H](F)C4)nc3c(C#N)c(-c4ccc(F)c5sc(N)c(C#N)c45)ccc23)[C@H]1C (stereo partly drawn) [Compound 404]
< 100 nM | C=CC(=O)N1C[C@@H](F)[C@@H](N(CC)c2nc(OC[C@@]34CCCN3C[C@H](F)C4)nc3cc(-c4ccc(F)c5sc(N)c(C#N)c45)c(Cl)cc23)C1 [Compound 370]
< 100 nM | C=CC(=O)N1C[C@H](C)N(c2nc(OC[C@@]34CCCN3C[C@H](OC)C4)nc3c(F)c(-c4ccc(F)c5sc(N)nc45)c(C(F)(F)F)cc23)C[C@H]1C (atropisomer, axis not shown) [Compound 289]
< 100 nM | C=CC(=O)N1CC[C@@H]2[C@H]1CN2c1nc(OC[C@@H]2CCCN2C)nc2c(F)c(-c3ccc(F)c4sc(N)nc34)c(Cl)cc12 [Compound 66]
< 100 nM | C=CC(=O)N1C[C@@H](F)[C@@H](N(C)c2nc(OCC34CCCN3CCC4)nc3c(F)c(-c4ccc(F)c5sc(N)c(C#N)c45)c(C(F)(F)F)cc23)C1 [Compound 374]
< 100 nM | C=CC(=O)N1CCN(c2nc(OCC34CCCN3CCC4)nc3c(F)c(-c4ccc(F)c5sc(N)nc45)c(Cl)cc23)CC1 [Compound 67]
100 to 1000 nM | C=CC(=O)N1CCC(N(CC)c2nc(OC[C@@]34CCCN3C[C@H](F)C4)nc3cc(-c4ccc(F)c5sc(N)c(C#N)c45)ccc23)[C@H]1COC (stereo partly drawn) [Compound 440]

IC50 | SMILES
100 to 1000 nM | C=CC(=O)N1CCC(N(C)c2nc(OC[C@@H]3CC4(CC4)CN3C)nc3c(F)c(-c4ccc(F)c5sc(N)c(C#N)c45)c(Cl)cc23)[C@H]1C (stereo partly drawn) [Compound 448]
100 to 1000 nM | C=CC(=O)N1CC[C@@H](N(C)c2ncnc3c(F)c(-c4ccc(F)c5sc(N)nc45)c(C(F)(F)F)cc23)C1 [Compound 225]
< 100 nM | C=CC(=O)N1C[C@H](C)N(c2nc(OC[C@@]34CCCN3C[C@H](OC)C4)nc3c(F)c(-c4ccc(F)c5sc(N)c(C#N)c45)c(Cl)cc23)C[C@H]1C [Compound 367]
> 1000 nM | C=CC(=O)N1CC[C@@H](N(C)c2nc(OC[C@@]34CCCN3C[C@H](F)C4)nc3c(F)c(-c4ccc(F)c5sc(C(F)F)nc45)c(C(F)(F)F)cc23)C1 [Compound 310]
100 to 1000 nM | C=CC(=O)N1CC[C@@H](N(C)c2nc(OC[C@@H]3C[C@@H](F)CN3C)nc3c(F)c(-c4ccc(F)c5sc(N)nc45)c(C(F)(F)F)cc23)C1 (atropisomer, axis not shown) [Compound 231]
< 100 nM | C=CC(=O)N1C[C@H](C)N(c2nc(OC[C@@]34CCCN3C[C@H](F)C4)nc3c(F)c(-c4ccc(F)c5sc(N)nc45)c(OC(F)F)cc23)C[C@H]1C [Compound 280]
< 100 nM | C=CC(=O)N1CCN(c2nc(OC[C@@]34CCCN3C[C@H](F)C4)nc3c(F)c(-c4ccc(F)c5sc(N)nc45)c(C(F)(F)F)cc23)[C@@H](C)C1 [Compound 189]
< 100 nM | C=CC(=O)N1CC[C@@H](N(C)c2nc(OC[C@@]34CCCN3C[C@H](F)C4)nc3c(F)c(-c4ccc(F)c5oc(N)nc45)c(C(F)(F)F)cc23)C1 [Compound 275]
< 100 nM | C=CC(=O)N1C[C@@H](F)[C@@H](N(CC)c2nc(OC[C@@]34CCCN3C[C@H](F)C4)nc3cc(-c4ccc(F)c5sc(N)c(C#N)c45)ccc23)C1 [Compound 377]
< 100 nM | C=CC(=O)N1CCC(N(C)c2nc(OC[C@@]34CCCN3C[C@H](F)C4)nc3cc(-c4ccc(F)c5sc(N)c(C#N)c45)ccc23)[C@H]1COC (stereo partly drawn) [Compound 389, 4-(4-((1-acryloyl-2-(methoxymethyl)pyrrolidin-3-yl)(methyl)amino)-2-(((2R,7aS)-2-fluorotetrahydro-1H-pyrrolizin-7a(5H)-yl)methoxy)quinazolin-7-yl)-2-amino-7-fluorobenzo[b]thiophene-3-carbonitrile]
< 100 nM | C=CC(=O)N1CCC(N(CC)c2nc(OC[C@@]34CCCN3C[C@H](F)C4)nc3cc(-c4ccc(F)c5sc(N)c(C#N)c45)ccc23)[C@H]1C (stereo partly drawn) [Compound 431]
100 to 1000 nM | CC#CC(=O)N1CCN(c2nc(OCC34CCCN3CCC4)nc3c(F)c(-c4ccc(F)c5sc(N)nc45)c(C(F)(F)F)cc23)CC1 [Compound 134]
< 100 nM | C=CC(=O)N1CC[C@@H](N(C)c2nc(OC[C@@]34CCCN3C[C@H](F)C4)nc3cc(-c4ccc(F)c5sc(N)c(C#N)c45)c(F)cc23)[C@H]1COC [Compound 391]
100 to 1000 nM | C=CC(=O)N1CCC(N(C)c2nc(OC[C@@H]3CCCN3C)nc3cc(-c4ccc(F)c5sc(N)c(C#N)c45)c(F)cc23)[C@H]1C (stereo partly drawn) [Compound 417]
< 100 nM | C=CC(=O)N1C[C@@H](F)[C@@H](N(CC)c2nc(OC[C@@]34CCCN3C[C@H](F)C4)nc3c(F)c(-c4ccc(F)c5sc(N)c(C#N)c45)c(Cl)cc23)C1 [Compound 368]
< 100 nM | C=CC(=O)N1C[C@H](C)N(c2nc(OCC34CCCN3CCC4)nc3c(F)c(-c4ccc(F)c5sc(N)c(C#N)c45)c(Cl)cc23)C[C@H]1C [Compound 366]
< 100 nM | C=CC(=O)N1[C@H](C)CN(c2nc(OC[C@]34CCCN3C[C@H](F)C4)nc3c(F)c(-c4ccc(F)c5sc(N)nc45)c(C(F)(F)F)cc23)C[C@@H]1C [Compound 215]
< 100 nM | C=CC(=O)N1CC[C@@H](N(CC)c2nc(OC[C@@]34CCCN3C[C@H](F)C4)nc3c(F)c(-c4ccc(F)c5sc(N)c(C#N)c45)c(C(F)(F)F)cc23)[C@H]1COC [Compound 442]
100 to 1000 nM | C=C(F)C(=O)N1CCN(c2nc(OC[C@@]34CCCN3C[C@H](F)C4)nc3c(F)c(-c4ccc(F)c5sc(N)nc45)c(C(F)(F)F)cc23)CC1 [Compound 186]
100 to 1000 nM | C=CC(=O)N1CC[C@@H]2[C@H]1CN2c1nc(OCC23CCCN2CCC3)nc2c(F)c(-c3ccc(F)c4sc(N)nc34)c(Cl)cc12 [Compound 65]
100 to 1000 nM | C=CC(=O)N1CC[C@@H](N(C)c2nc(OC[C@@]34CCCN3C[C@H](F)C4)nc3c(F)c(-c4ccc(F)c5sc(N)nc45)c(OC(F)(F)F)cc23)C1 [Compound 238, 1-((3R)-3-((7-(2-amino-7-fluorobenzo[d]thiazol-4-yl)-8-fluoro-2-(((2R,7aS)-2-fluorotetrahydro-1H-pyrrolizin-7a(5H)-yl)methoxy)-6-(trifluoromethoxy)quinazolin-4-yl)(methyl)amino)pyrrolidin-1-yl)prop-2-en-1-one]
< 100 nM | C=CC(=O)N1C[C@H](F)[C@@H](N(C)c2nc(OC[C@@]34CCCN3C[C@H](F)C4)nc3c(F)c(-c4ccc(F)c5sc(N)c(C#N)c45)c(C(F)(F)F)cc23)C1 [Compound 327]

Same assay, conditions: pERK inhibition IC50, NCI-H358 cells, 30 min incubation; read-out: PERK in H358 cell

IC50 | SMILES
> 1000 nM | C=CC(=O)N1CC[C@@H](N(c2nc(OC[C@@]34CCCN3C[C@H](F)C4)nc3c(F)c(-c4ccc(F)c5sc(N)nc45)c(C(F)(F)F)cc23)C2CC2)C1 (single isomer, unassigned) [Compound 237]
